In ChEMBL document CHEMBL5500412, “Discovery of Highly Selective, Potent, Covalent, and Orally Bioavailable Factor XIIa Inhibitors for the Treatment of Thrombo-Inflammation” (J Med Chem, 2024):
Activity calls are given as the source filed them. The rule behind the calls is not given here.

What was measured:
[1] = biological target: T1, Coagulation factor XII (Homo sapiens, UniProt P00748); test: Inhibition of FXIIa (unknown origin) using H-D-Pro-Phe-Arg-pNA as substrate incubated for 20 mins followed by substrate addition by spectrophotometric analysis
T1 sequence (P00748 whole entry): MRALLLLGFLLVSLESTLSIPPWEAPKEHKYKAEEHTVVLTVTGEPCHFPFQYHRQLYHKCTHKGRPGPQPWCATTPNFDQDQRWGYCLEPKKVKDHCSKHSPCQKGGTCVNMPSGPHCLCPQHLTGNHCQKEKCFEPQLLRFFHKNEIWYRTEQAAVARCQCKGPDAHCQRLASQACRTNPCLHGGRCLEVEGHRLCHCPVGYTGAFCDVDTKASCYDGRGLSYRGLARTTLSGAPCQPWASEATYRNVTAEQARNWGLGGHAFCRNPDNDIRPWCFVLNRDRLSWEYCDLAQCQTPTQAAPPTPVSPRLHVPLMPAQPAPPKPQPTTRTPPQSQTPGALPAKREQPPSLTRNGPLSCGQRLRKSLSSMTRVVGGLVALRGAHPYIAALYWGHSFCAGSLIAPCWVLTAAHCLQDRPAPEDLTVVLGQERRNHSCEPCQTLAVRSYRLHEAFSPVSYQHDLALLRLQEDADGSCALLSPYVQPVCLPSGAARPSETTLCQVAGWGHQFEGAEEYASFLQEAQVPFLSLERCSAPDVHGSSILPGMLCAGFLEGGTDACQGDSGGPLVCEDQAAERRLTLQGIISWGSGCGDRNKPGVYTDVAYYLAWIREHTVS

[2] = biological target: T2, Coagulation factor XII (Homo sapiens) (UniProt P00748); test: Inhibition of FXIIa (unknown origin) using H-D-Pro-Phe-Arg-pNA as substrate at 500 nM incubated for 20 mins followed by substrate addition by spectrophotometric analysis relative to control
T2 sequence (whole entry): T1 sequence (P00748 whole entry)

[3] = system: RAW264.7; test: Antiinflammatory activity in mouse RAW264.7 cells assessed as inhibition of LPS-induced IL-6 expression at 10 uM preincubated for 12 hrs followed by LPS stimulation and measured after 12 hrs by real time quantitative RT-PCR assay; assay type: functional, cell-based; settings: time 24.0 hrs
[4] = system: RAW264.7; test: Antiinflammatory activity in mouse RAW264.7 cells assessed as inhibition of LPS-induced IL-1 beta expression at 10 uM preincubated for 12 hrs followed by LPS stimulation and measured after 12 hrs by real time quantitative RT-PCR assay; assay type: functional, cell-based; settings: time 24.0 hrs
[5] = biological target: T1, Coagulation factor XII; test: Inhibition of human FXIIa (unknown origin)
[6] = Toxicity in BALB/c mouse assessed as prolongation of bleeding time at 30 mg/kg, po measured after 90 mins; assay type: organism-based; settings: in vivo, 1.5 h
[7] = biological target: Plasma kallikrein (Homo sapiens, UniProt P03952); test: Inhibition of PKal (unknown origin) using H-D-Pro-Phe-Arg-pNA-2HCl as substrate incubated for 20 mins followed by substrate addition by spectrophotometric analysis
[8] = Selectivity index, ratio of IC50 for trypsin (unknown origin) to IC50 for FXIIa (unknown origin)
[9] = Selectivity index, ratio of IC50 for plasmin (unknown origin) to IC50 for FXIIa (unknown origin)
[10] = Selectivity index, ratio of IC50 for PKal (unknown origin) to IC50 for FXIIa (unknown origin)
[11] = system: Plasma; test: Anticoagulant activity in human plasma assessed as prolongation of activated partial thromboplastin time at 300 uM incubated for 2 mins by aPTT reagent based assay relative to control; assay type: functional
[12] = biological target: Coagulation factor X (Homo sapiens, UniProt P00742); test: Inhibition of FXa (unknown origin) using Z-D-Arg-Gly-Arg-pNA.2HCl as chromogenic substrate incubated for 20 mins followed by substrate addition by spectrophotometric analysis
[13] = biological target: Chymotrypsin (Homo sapiens, UniProt Q99895+P17538+P40313+Q6GPI1); test: Inhibition of Chymotrypsin (unknown origin) using N-Suc-Ala-Ala-Pro-Phe-pNA as chromogenic substrate incubated for 20 mins followed by substrate addition by spectrophotometric analysis; assay type: protein assay
[14] = biological target: Coagulation factor XI (Homo sapiens, UniProt P03951); test: Inhibition of FXIa (unknown origin) using p-Glu-Pro-Arg-pNA.HCl as chromogenic substrate incubated for 20 mins followed by substrate addition by spectrophotometric analysis
[15] = biological target: Plasminogen (Homo sapiens, UniProt P00747); test: Inhibition of plasmin (unknown origin) using PyroGlu-Phe-Lys-pNA.HCl as chromogenic substrate incubated for 20 mins followed by substrate addition by spectrophotometric analysis
[16] = Selectivity index, ratio of IC50 for thrombin (unknown origin) to IC50 for FXIIa (unknown origin)
[17] = Selectivity index, ratio of IC50 for tPA (unknown origin) to IC50 for FXIIa (unknown origin)
[18] = system: Plasma; test: Anticoagulant activity in human plasma assessed as prolongation of […] time at 300 uM incubated for 2 mins by PT reagent based assay; assay type: functional, cell-free
[19] = Selectivity index, ratio of IC50 for FXIa (unknown origin) to IC50 for FXIIa (unknown origin)
[20] = biological target: Trypsin (Homo sapiens, UniProt P07477+P07478+P35030); test: Inhibition of trypsin (unknown origin) using Bz-lle-Glu(gamma-OR)-Gly-Arg-pNA.HCl as chromogenic substrate incubated for 20 mins followed by substrate addition by spectrophotometric analysis; assay type: protein assay
[21] = Selectivity index, ratio of IC50 for chymotrypsin (unknown origin) to IC50 for FXIIa (unknown origin)
[22] = biological target: Prothrombin (Homo sapiens, UniProt P00734); test: Inhibition of thrombin (unknown origin) using H-D-Phe-Pip-Arg-pNA-2HCl as substrate incubated for 20 mins followed by substrate addition by spectrophotometric analysis
[23] = Selectivity index, ratio of IC50 for FXa (unknown origin) to IC50 for FXIIa (unknown origin)
[24] = biological target: Tissue-type plasminogen activator (Homo sapiens, UniProt P00750); test: Inhibition of tPA (unknown origin) using H-D-lle-Pro-Arg-pNA-2HCl as chromogenic substrate incubated for 20 mins followed by substrate addition by spectrophotometric analysis
Sequence of Tissue-type plasminogen activator (P00750 whole entry): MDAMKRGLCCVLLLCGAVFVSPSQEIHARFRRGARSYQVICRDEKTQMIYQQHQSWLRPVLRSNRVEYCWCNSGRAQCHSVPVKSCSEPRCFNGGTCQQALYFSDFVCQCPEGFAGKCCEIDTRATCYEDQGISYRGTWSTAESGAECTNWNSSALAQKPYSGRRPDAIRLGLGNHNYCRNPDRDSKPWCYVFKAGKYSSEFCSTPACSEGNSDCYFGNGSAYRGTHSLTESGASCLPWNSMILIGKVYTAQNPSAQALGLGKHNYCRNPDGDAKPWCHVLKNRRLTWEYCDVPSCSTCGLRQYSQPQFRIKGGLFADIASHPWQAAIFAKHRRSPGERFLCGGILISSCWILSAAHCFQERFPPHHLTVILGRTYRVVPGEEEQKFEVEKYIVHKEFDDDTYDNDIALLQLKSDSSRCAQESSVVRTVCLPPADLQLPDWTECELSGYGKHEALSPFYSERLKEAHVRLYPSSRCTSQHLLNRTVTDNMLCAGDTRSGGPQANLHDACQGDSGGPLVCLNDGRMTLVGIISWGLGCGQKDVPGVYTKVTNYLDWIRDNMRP

Sequence of Plasma kallikrein (P03952 20-390 limits assumed): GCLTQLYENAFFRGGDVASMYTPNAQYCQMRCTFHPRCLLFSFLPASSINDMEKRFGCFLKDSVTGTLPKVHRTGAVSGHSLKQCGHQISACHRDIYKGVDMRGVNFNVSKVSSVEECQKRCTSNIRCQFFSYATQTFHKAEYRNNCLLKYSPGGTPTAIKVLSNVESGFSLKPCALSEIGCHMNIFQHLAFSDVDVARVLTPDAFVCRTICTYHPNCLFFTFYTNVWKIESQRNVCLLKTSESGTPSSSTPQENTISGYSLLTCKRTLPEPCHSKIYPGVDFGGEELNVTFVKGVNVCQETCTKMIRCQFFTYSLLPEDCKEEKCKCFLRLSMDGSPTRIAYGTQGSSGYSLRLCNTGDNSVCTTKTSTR
Sequence of Plasma kallikrein (P03952 391-638 limits assumed): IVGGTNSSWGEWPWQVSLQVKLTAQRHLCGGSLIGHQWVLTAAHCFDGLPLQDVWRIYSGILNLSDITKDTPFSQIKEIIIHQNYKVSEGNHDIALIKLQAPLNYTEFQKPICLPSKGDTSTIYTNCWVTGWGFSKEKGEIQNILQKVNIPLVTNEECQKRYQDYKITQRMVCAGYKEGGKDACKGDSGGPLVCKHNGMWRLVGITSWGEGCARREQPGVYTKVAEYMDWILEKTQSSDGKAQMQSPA
Sequence of Plasminogen (P00747 97-580 limits assumed): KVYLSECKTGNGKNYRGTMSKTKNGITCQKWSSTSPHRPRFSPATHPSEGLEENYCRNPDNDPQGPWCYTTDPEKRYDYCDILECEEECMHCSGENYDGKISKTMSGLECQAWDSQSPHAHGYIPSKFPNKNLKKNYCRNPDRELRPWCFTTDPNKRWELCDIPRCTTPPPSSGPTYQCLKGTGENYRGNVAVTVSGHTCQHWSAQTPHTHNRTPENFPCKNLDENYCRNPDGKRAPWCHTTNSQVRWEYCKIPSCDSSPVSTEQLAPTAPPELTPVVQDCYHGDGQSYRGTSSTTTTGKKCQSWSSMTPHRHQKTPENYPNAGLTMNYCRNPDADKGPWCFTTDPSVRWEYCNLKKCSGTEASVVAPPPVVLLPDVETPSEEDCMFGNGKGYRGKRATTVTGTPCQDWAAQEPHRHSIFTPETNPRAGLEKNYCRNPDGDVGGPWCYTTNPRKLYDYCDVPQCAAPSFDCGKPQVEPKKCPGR
Sequence of Plasminogen (P00747 581-810 limits assumed): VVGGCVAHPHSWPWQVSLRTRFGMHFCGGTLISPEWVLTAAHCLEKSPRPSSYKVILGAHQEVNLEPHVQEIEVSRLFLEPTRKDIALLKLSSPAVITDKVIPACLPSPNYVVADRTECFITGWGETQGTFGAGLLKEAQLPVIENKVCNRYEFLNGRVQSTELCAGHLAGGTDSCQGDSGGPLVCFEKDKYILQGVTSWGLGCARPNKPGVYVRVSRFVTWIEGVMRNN
Sequence of Coagulation factor XI (P03951 19-387 limits assumed): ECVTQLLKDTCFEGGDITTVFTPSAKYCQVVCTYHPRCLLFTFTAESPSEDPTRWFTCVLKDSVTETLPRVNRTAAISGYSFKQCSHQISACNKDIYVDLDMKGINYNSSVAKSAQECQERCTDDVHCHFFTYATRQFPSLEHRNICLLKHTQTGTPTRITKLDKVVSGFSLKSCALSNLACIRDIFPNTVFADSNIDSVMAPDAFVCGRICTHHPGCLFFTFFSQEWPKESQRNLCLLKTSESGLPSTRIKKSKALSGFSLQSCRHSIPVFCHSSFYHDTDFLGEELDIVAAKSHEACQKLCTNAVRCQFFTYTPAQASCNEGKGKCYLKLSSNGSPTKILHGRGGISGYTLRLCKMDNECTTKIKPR
Sequence of Coagulation factor XI (P03951 388-625 limits assumed): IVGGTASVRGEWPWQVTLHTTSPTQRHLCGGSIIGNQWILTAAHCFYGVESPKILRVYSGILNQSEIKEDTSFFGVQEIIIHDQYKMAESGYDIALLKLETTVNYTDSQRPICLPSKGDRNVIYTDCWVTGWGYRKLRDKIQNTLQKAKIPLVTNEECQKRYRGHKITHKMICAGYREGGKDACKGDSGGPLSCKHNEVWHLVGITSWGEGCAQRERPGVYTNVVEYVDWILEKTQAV
Sequence of Coagulation factor X (P00742 41-179 limits assumed): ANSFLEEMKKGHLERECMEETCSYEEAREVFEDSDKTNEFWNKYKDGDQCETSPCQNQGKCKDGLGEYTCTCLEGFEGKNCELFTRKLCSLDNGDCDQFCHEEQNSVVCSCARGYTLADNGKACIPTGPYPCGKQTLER
Sequence of Coagulation factor X (P00742 235-488 limits assumed): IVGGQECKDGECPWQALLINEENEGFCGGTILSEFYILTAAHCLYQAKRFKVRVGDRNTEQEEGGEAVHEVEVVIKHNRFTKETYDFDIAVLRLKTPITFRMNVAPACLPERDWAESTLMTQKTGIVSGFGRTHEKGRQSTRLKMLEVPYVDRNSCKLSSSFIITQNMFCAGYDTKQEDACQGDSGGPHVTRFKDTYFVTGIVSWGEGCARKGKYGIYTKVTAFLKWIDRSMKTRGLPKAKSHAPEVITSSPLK

Nc1nc(-c2ccccn2)nn1C(=O)c1ccc(N2CCC3(CC2)OCCO3)cc1
IC50 [1]: 0.202 µM | inhibition [2]: 70%

Nc1nc(-c2ccccn2)nn1C(=O)c1ccc(NC(=O)c2ccccc2)c(F)c1
inhibition [2]: 9%

CC(C)N1CCN(c2ccc(C(=O)n3nc(-c4ccc(F)cn4)nc3N)cc2)CC1
Activity [3]: Active | IC50 [1]: 0.079 µM | Activity [4]: Active | inhibition [2]: 79%

CN1CCN(c2ccc(C(=O)n3nc(-c4ccccn4)nc3N)cc2)CC1
IC50 [1]: 0.18 µM | inhibition [2]: 72%

Nc1nc(-c2ccccn2)nn1C(=O)c1ccc(NC(=O)[C@@H](CC2CCCCC2)NC2CCCCC2)cc1
inhibition [2]: 33%

CC(C)C[C@@H](NC1CCCC1)C(=O)Nc1ccc(C(=O)n2nc(-c3ccccn3)nc2N)cc1
inhibition [2]: 28%

Nc1nc(-c2ccccn2)nn1C(=O)c1ccc(N2CCC3(CC2)CC3)cc1
inhibition [2]: 21%

CN1CCN(c2ccc(C(=O)n3nc(-c4cccnc4)nc3N)cc2)CC1
inhibition [2]: 57%

CN(C)C(=O)N1CCN(c2ccc(C(=O)n3nc(-c4ccccn4)nc3N)c3ccccc23)CC1
IC50 [1]: 0.086 µM

Nc1nc(-c2ccccn2)nn1C(=O)c1ccc(NC(=O)[C@@H](Cc2ccccc2)NC2CCCCC2)cc1
inhibition [2]: 24%

CN1CCN(c2cccc(C(=O)n3nc(-c4ccccn4)nc3N)c2)CC1
inhibition [2]: 21%

CC(C)N1CCN(c2ccc(C(=O)n3nc(-c4ccccn4)nc3N)cc2)CC1
IC50 [1]: 0.072 µM | inhibition [2]: 79%

Nc1nc(-c2ccccn2)nn1C(=O)c1ccc(N2CCN(C3CC3)CC2)c2ccccc12
IC50 [1]: 0.04 µM

Cc1cc(N2CCn3c(nnc3C(F)(F)F)[C@@H]2C)ncc1CNc1cccc2c(N)nccc12
IC50 [5]: 0.01 µM

Nc1nc(-c2ccccn2)nn1C(=O)c1ccc(NC(=O)c2cccc3ccccc23)cc1
inhibition [2]: 60%

CC(C)N1CCN(c2ccc(C(=O)n3nc(-c4ccc(Cl)cn4)nc3N)cc2)CC1
IC50 [1]: 0.081 µM | inhibition [2]: 77%

CN(C)CCN(C)c1ccc(C(=O)n2nc(-c3ccccn3)nc2N)cc1
IC50 [1]: 0.19 µM | inhibition [2]: 72%

CC(C)S(=O)(=O)N1CCN(c2ccc(C(=O)n3nc(-c4ccccn4)nc3N)c3ccccc23)CC1
IC50 [1]: 0.095 µM

CN1CC=C(c2ccc(C(=O)n3nc(-c4ccccn4)nc3N)cc2)CC1
inhibition [2]: 40%

CC(C)N1CCN(c2ccc(C(=O)n3nc(-c4ccccn4)nc3N)c3c2OCCO3)CC1
IC50 [1]: 0.051 µM

Cc1cc(C(=O)n2nc(-c3ccccn3)nc2N)ccc1N1CCN(C(C)C)CC1
Activity [3]: Active | IC50 [1]: 0.048 µM | Activity [4]: Active | inhibition [2]: 82%

Nc1nc(-c2ccccn2)nn1C(=O)c1ccc(N2CCN(CCO)CC2)cc1
inhibition [2]: 63%

Nc1nc(-c2ccccn2)nn1C(=O)c1cccc(N2CCC3(CC2)OCCO3)c1
inhibition [2]: 40%

Nc1nccc2c(NCC34COC(COc5ccn6ccnc6c5)(C3)C4)cccc12
IC50 [5]: 0.1 µM

COCCN1CCN(c2ccc(C(=O)n3nc(-c4ccccn4)nc3N)cc2)CC1
inhibition [2]: 65%

Cc1cc(C(=O)n2nc(-c3ccccn3)nc2N)cc(C)c1N1CCN(C(C)C)CC1
inhibition [2]: 28%

Nc1nc(-c2ccccn2)nn1C(=O)c1ccc(NC(=O)c2ccccc2)cc1F
inhibition [2]: 28%

Nc1nc(-c2ccccn2)nn1C(=O)c1ccc(NC(=O)c2cccc3c2OCCO3)cc1
inhibition [2]: 62%

Nc1nc(-c2ccccn2)nn1C(=O)c1ccc(NC(=O)c2cccc3c2CCCC3)cc1
inhibition [2]: 62%

Nc1nc(-c2ccccn2)nn1C(=O)c1ccc(N2CCN(C3CCCCC3)CC2)c2ccccc12
IC50 [1]: 0.056 µM

O=C(NC[C@H]1CN(c2ccc(N3CCOCC3=O)cc2)C(=O)O1)c1ccc(Cl)s1 [RIVAROXABAN]
Activity [6]: Toxic

CN1CCC(c2ccc(C(=O)n3nc(-c4ccccn4)nc3N)cc2)CC1
inhibition [2]: 34%

CN1CCN(c2ccc(C(=O)n3nc(-c4ccncc4)nc3N)cc2)CC1
IC50 [1]: 0.195 µM | inhibition [2]: 71%

Nc1nc(-c2ccccn2)nn1C(=O)c1ccc(N2CCN(C3COC3)CC2)c2ccccc12
IC50 [7]: > 25 µM | Ratio IC50 [8]: > 640 | Activity [3]: Active | Ratio IC50 [9]: > 640 | Ratio IC50 [10]: > 640 | Activity [11]: 472% | IC50 [12]: > 25 µM | IC50 [13]: > 25 µM | IC50 [14]: > 25 µM | IC50 [15]: > 25 µM | Ratio IC50 [16]: 830 | IC50 [1]: 0.039 µM | Ratio IC50 [17]: > 640 | Activity [18]: inactive | Ratio IC50 [19]: > 640 | Activity [4]: Active | IC50 [20]: > 25 µM | Ratio IC50 [21]: > 640 | IC50 [22]: 20 µM | Ratio IC50 [23]: > 640 | IC50 [24]: > 25 µM

COc1cc(C(=O)n2nc(-c3ccccn3)nc2N)ccc1N1CCN(C(C)C)CC1
inhibition [2]: 43%

Nc1nc(-c2ccccn2)nn1C(=O)c1ccc(NC(=O)c2ccccc2)cc1
IC50 [7]: > 25 µM | Ratio IC50 [8]: > 30 | Ratio IC50 [9]: > 30 | Ratio IC50 [10]: > 150 | Activity [11]: 35% | IC50 [13]: > 5 µM | IC50 [14]: > 25 µM | IC50 [15]: > 5 µM | Ratio IC50 [16]: 770 | IC50 [1]: 0.163 µM | Ratio IC50 [17]: > 30 | Ratio IC50 [19]: > 150 | IC50 [20]: > 5 µM | Ratio IC50 [21]: > 30 | IC50 [22]: 15.7 µM | Ratio IC50 [23]: > 30 | IC50 [24]: > 5 µM | inhibition [2]: 74%

Nc1nc(-c2ccccn2)nn1C(=O)c1ccc(N2CCN(C3CCCC3)CC2)c2ccccc12
IC50 [1]: 0.05 µM

Nc1nc(-c2ccccn2)nn1C(=O)c1ccc(NCc2ccccc2)cc1
inhibition [2]: 39%
